Source: US12103915B2, “TEAD inhibitors and methods of uses thereof” (Insilico Medicine IP Limited, priority 2022, dated 2024)

Legend:
TEAD4 = TEAD4 (Homo sapiens, UniProt Q15561); assay: Thermal shift assay TEAD4; type: binding
Description: (§1) Example B: Thermal Shift Assay
(§2) 1) Prepare a fresh dilution of Protein Thermal Shift™ Dye (Applied Biosystems, 1000×) to 8× by […].
(§3) 2) To ensure the same DMSO concentration, the compounds were diluted as follows: Prepare 10 mM stock solution of compounds;
(§4) The final DMSO concentration was 0.1%
(§5) 10 μM: Diluting stock solution to 100 μM by using PBS.
(§6) 1 μM: Diluting stock solution to 1 mM by using DMSO, then dilute to 10 μM by using PBS.
TEAD4: the stock concentration was 2.3 mg/ml; the final concentration was 0.1 mg/ml.
(§7) 4) Place the appropriate reaction plate or tubes on ice, then prepare the protein melt reactions:
(§8) 5) Pipet each reaction up and down 10 times to mix well.
(§9) 6) Seal the plate with MicroAmp™ Optical Adhesive Film, spin it at 1000 rpm for 1 minute.
(§10) 7) Set up and run on the qPCR instrument.
(§11) Using thermal Shift™ Software v1.3 to analysis.

TEAD1 = TEAD1 (Homo sapiens, UniProt P28347); assay: Thermal shift assay TEAD1; type: binding
Description: as §1, §2, §3, §4, §5, §6
(§12) TEAD1: the stock concentration was 2.9 mg/ml; the final concentration was 0.2 mg/ml. TEAD2: the stock concentration was 1.8 mg/ml; the final concentration was 0.08 mg/ml.
as §7, §8, §9, §10, §11

NCI-H226 cells = assay: Cell growth assay (CellTiter-Glo); type: cell-based, human; conditions: Homo sapiens, NCI-H226, 168 h, 7 days treatment, CellTiter-Glo luminescence, read-out: H226 CTG IC50
Description: Example A: Cell Growth Assay
CellTiter-Glo reagent (CTG reagent, Promega, G7573).
[…] Also seeding an extra plate as Day 0 control measurement. The microplates were incubated at 37° C., 5% CO2 overnight.
Compounds were 3-fold serial diluted in DMSO and final top-concentration was […], 10 points. 0.3% DMSO as vehicle control. In addition, […] of CTG reagent was added into the extra plate and incubated at room temperature for 30 minutes and detected luminescence signals as Day 0 control by using EnVision (PerkinElmer, 2104 Mutilabel Reader).
Incubated other compounds treated plates at 37° C. for another 7 days and […] of CTG reagent was added into the plates and incubated at room temperature for 30 minutes and detected luminescence signals.
Day 0 luminescence signals were used as negative control or baseline. • Signalday0=average luminescence signals of Day 0 control cells. • Signalblank control=average luminescence signals of blank control. • SignalDMSO vehicle control=average luminescence signals of Day 7 DMSO vehicle control cells. • Signalcpds treatment=luminescence signals of Day 7 compounds treatment cells. Inhibition %=1−(Signalcpds treatment−Signalblank control)/(SignalDMSO vehicle control−Signalblank control)*100.
(Inhibitory concentration 50% (IC50) and maximum inhibition % were calculated using dose response curves.

TEAD3 = TEAD3 (Homo sapiens, UniProt Q99594); assay: Thermal shift assay TEAD3; type: binding
Description: as §1, §2, §3, §4, §5, §6
TEAD3: the stock concentration was 2.4 mg/ml; the final concentration was 0.1 mg/ml.
as §7, §8, §9, §10, §11

TEAD2 = TEAD2 (Homo sapiens, UniProt Q15562); assay: Thermal shift assay TEAD2; type: binding
Description: as §1, §2, §3, §4, §5, §6, §12, §7, §8, §9, §10, §11

TEAD3, sequence (Q99594 whole entry, species assumed): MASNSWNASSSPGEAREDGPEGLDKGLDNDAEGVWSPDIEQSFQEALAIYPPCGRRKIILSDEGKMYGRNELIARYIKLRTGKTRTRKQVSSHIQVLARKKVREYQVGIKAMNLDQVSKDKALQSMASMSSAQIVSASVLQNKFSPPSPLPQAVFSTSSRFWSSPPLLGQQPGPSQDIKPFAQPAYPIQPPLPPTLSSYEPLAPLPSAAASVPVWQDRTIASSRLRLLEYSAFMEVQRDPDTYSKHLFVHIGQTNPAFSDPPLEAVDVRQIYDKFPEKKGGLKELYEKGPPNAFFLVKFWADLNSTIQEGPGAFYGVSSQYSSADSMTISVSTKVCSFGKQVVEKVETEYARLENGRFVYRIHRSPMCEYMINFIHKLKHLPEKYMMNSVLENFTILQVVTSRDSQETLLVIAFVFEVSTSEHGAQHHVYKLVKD
TEAD2, sequence (Q15562 whole entry, species assumed): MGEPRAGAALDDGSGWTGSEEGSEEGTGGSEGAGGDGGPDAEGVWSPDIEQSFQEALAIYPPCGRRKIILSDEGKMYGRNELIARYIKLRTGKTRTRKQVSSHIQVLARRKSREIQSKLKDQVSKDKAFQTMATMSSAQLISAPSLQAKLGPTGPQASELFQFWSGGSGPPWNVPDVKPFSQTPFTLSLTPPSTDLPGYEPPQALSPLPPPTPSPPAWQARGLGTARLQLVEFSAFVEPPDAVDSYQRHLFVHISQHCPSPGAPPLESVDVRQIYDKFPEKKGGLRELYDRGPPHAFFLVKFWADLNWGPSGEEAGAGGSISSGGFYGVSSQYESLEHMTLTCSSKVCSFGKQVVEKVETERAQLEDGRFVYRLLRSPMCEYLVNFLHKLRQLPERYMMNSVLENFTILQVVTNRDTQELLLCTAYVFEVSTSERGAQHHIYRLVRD
TEAD1, sequence (P28347 whole entry, species assumed): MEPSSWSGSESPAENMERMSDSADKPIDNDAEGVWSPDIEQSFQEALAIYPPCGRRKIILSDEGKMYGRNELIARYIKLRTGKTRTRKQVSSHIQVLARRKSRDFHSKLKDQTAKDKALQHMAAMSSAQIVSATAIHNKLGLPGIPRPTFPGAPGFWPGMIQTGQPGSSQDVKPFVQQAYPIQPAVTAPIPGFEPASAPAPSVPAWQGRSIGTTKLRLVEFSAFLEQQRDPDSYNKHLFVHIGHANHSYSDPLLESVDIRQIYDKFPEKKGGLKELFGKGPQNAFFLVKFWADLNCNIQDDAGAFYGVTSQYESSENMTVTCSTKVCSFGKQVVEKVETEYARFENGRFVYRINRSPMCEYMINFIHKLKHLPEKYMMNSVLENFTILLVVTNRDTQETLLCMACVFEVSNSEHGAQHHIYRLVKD
TEAD4, sequence (Q15561 whole entry, species assumed): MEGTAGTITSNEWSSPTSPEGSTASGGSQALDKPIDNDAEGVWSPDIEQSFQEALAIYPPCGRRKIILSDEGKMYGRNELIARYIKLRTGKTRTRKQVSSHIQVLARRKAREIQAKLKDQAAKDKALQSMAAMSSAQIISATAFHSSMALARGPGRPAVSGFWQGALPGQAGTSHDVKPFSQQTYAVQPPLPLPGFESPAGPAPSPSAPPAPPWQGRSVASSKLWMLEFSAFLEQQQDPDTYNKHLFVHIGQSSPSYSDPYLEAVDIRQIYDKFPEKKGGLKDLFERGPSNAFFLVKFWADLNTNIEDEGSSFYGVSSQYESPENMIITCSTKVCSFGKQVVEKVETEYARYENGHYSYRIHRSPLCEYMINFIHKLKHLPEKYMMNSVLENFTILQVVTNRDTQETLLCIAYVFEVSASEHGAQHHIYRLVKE

Row | SMILES | TEAD4 ΔTm (TEAD4) [°C] | TEAD1 ΔTm (TEAD1) [°C] | IC50 (NCI-H226 cells) [nM] | TEAD3 ΔTm (TEAD3) [°C] | TEAD2 ΔTm (TEAD2) [°C]
1 | O=C(O)[C@@H]1CC1c1cn(-c2ccc(C(F)(F)F)cc2)c2cccnc12 (mixture of isomers) [Example 20] | 5.9 | 3.8 | 100 to 500 | 3.2 | 6.8
2 | Cc1ccc2c(c1)c(C1C[C@H]1C(=O)O)cn2-c1ccc(C(F)(F)F)cc1 (mixture of isomers) [Example 21] | 9.3 | 11 | < 100 | 5.2 | 6.7
3 | CNC(=O)[C@@H]1CC1c1cc(-c2ccc(OC(F)(F)F)cc2)cc2cn(C)nc12 (mixture of isomers) [Example 33] | 6.5 | 4 | < 100 | 0.6 | 6.7
4 | CNC(=O)[C@@H]1CC1c1cc(Oc2ccc(C(F)(F)F)cc2)cc2cn(C)nc12 (mixture of isomers) [Example 34] | 10.3 | 8.5 | < 100 | 6.6 | 12.7
5 | CNC(=O)[C@@H]1CC1c1cc(-c2ccc(C(F)(F)F)cc2)cc2cccnc12 (mixture of isomers) [Example 38] | 0.2 | 1.1 | 100 to 500 | 0.5 | 0.8
6 | CNS(=O)(=O)[C@@H]1CC1c1cc(Oc2ccc(C(F)(F)F)cc2)cc2cn(C)nc12 (mixture of isomers) [Example 51] | 9.1 | 7.5 | 1000 to 30000 | 10.6 | 9.7
7 | CC(C)NC(=O)[C@@H]1CC1c1cc(Oc2ccc(C(F)(F)F)cc2)cc2cn(C)nc12 (mixture of isomers) [Example 56] | 8.6 | 8.3 | < 100 | 7.2 | 9
8 | CC(NC(=O)[C@@H]1CC1c1cc(Oc2ccc(C(F)(F)F)cc2)cc2cn(C)nc12)c1ccccn1 (mixture of isomers) [Example 57] | 14 | 7.6 | 100 to 500 | 12.4 | 9.4
9 | CNC(=O)[C@@H]1CC1c1cc(Oc2ccc(C(F)(F)F)cc2)cc2cn(C3CC3)nc12 (mixture of isomers) [Example 78] | 6.6 | 9.2 | 100 to 500 | 0.4 | 11.1
10 | CNC(=O)[C@@H]1CC1c1cc(Oc2ccc(C(F)(F)F)cc2)cc2cn(C(F)F)nc12 (mixture of isomers) [Example 79] | 7.7 | 8.1 | 100 to 500 | 1.0 | 12.3
11 | CNC(=O)[C@@H]1CC1c1cc(Oc2ccc(C(F)(F)F)cc2)cc2cccnc12 (mixture of isomers) [Example 80] | 6.2 | 6.0 | 100 to 500 | 5.1 | 10.5
12 | CNS(=O)(=O)[C@@H]1CC1c1cc(Oc2ccc(C(F)(F)F)cc2)cc2cccnc12 (mixture of isomers) [Example 81] | 8.2 | 5.5 | 500 to 1000 | 8.9 | 9.6
13 | Cn1cc2cc(OC3CC4(C3)CC(F)(F)C4)cc(C3C[C@H]3C(=O)O)c2n1 (mixture of isomers) [Example 93] | 6.4 | 6.7 | 100 to 500 | 1.3 | 9.3
14 | CNC(=O)[C@@H]1CC1c1cc(OC2CC3(C2)CC(F)(F)C3)cc2cn(C)nc12 (mixture of isomers) [Example 94] | 2.6 | 3.3 | 100 to 500 | 0.7 | 6.5
15 | O=C(O)[C@@H]1C[C@H]1c1cc(Oc2ccc(C(F)(F)F)cc2)cc2c1NCCC2 (racemic) [Example 144] | 9.9 | 10.6 | 1000 to 30000 | 13.1 | 18.2
16 | CNC(=O)[C@@H]1C[C@H]1c1cc(Oc2ccc(C(F)(F)F)cc2)cc2c1NCCC2 (racemic) [Example 145] | 2.9 | 4.8 | 100 to 500 | 1.0 | 9.9
17 | CNS(=O)(=O)[C@@H]1C[C@H]1c1cc(Oc2ccc(C(F)(F)F)cc2)cc2c1NCCC2 (racemic) [Example 146] | 6.7 | 5.5 | 100 to 500 | 1.0 | 12.0

Now from value to compound:

Row | TEAD4 ΔTm (TEAD4) [°C] | TEAD1 ΔTm (TEAD1) [°C] | IC50 (NCI-H226 cells) [nM] | TEAD3 ΔTm (TEAD3) [°C] | TEAD2 ΔTm (TEAD2) [°C] | SMILES
18 | 5.7 | 4.5 | < 100 | 1.1 | 5.5 | CNC(=O)[C@@H]1CC1c1cc(-c2ccc(C(F)(F)F)cc2)cc2c1=NC(C)N=2 (mixture of isomers) [Example 22]
19 | 6.5 | 4.7 | 100 to 500 | 0.7 | 3.5 | CCNC(=O)[C@@H]1CC1c1cc(-c2ccc(C(F)(F)F)cc2)cc2c1=NC(C)N=2 (mixture of isomers) [Example 23]
20 | 6.6 | 5.4 | < 100 | 0.7 | 6.9 | Cn1ncc2c(C3C[C@H]3C(N)=O)cc(-c3ccc(C(F)(F)F)cc3)cc21 (mixture of isomers) [Example 25]
21 | 1.7 | 1.7 | 100 to 500 | 0.1 | 1.9 | CN(C)C(=O)[C@@H]1CC1c1cc(-c2ccc(C(F)(F)F)cc2)cc2c1cnn2C (mixture of isomers) [Example 26]
22 | 0.6 | 0.6 | 100 to 500 | 0.3 | 0.5 | CC(C)NC(=O)[C@@H]1C[C@H]1c1cc(-c2ccc(C(F)(F)F)cc2)cc2c1cnn2C (racemic) [Example 27]
23 | 2.4 | 3.7 | 100 to 500 | 0.5 | 0.5 | CC(NC(=O)[C@@H]1C[C@H]1c1cc(-c2ccc(C(F)(F)F)cc2)cc2c1cnn2C)c1ccccn1 (mixture of isomers) [Example 28]
24 | 0.9 | 1.6 | 100 to 500 | 0.1 | 0.8 | COCCNC(=O)[C@@H]1C[C@H]1c1cc(-c2ccc(C(F)(F)F)cc2)cc2c1cnn2C (racemic) [Example 30]
25 | 2.8 | 3 | 100 to 500 | 0 | 2.7 | Cn1ncc2c([C@@H]3C[C@H]3C(=O)N3CC(O)C3)cc(-c3ccc(C(F)(F)F)cc3)cc21 (racemic) [Example 31]
26 | 1.3 | 2.1 | 100 to 500 | 0.2 | 0.9 | CNC(=O)[C@@H]1C[C@H]1c1cc(-c2ccc(C(F)(F)F)cc2)cc2c1cnn2C(F)F (racemic) [Example 32]
27 | 6.1 | 5.4 | < 100 | 5.4 | 11.2 | Cn1ncc2c(C3C[C@H]3C(N)=O)cc(Oc3ccc(C(F)(F)F)cc3)cc21 (mixture of isomers) [Example 35]
28 | 4.3 | 6.8 | < 100 | 4.6 | 12.9 | CNC(=O)[C@@H]1CC1c1cc(Oc2ccc(C(F)(F)F)cc2)cc2c1cnn2C (mixture of isomers) [Example 36]
29 | 0.1 | 0.2 | 1000 to 30000 | 0.1 | 0.9 | CNC(=O)[C@@H]1CC1c1cc(OCc2ccc(C(F)(F)F)cc2)cc2c1cnn2C (mixture of isomers) [Example 37]
30 | 0 | 0 | 1000 to 30000 | 0 | 0 | CNC(=O)[C@@H]1CC1c1cc(-c2ccc(C(F)(F)F)cc2)cc2scnc12 (mixture of isomers) [Example 39]
